Assay results: patent publication US20080200403A1, “9A-Carbamoyl and Thiocarbamoyl Azalides with Anti-Inflammatory Activity” (GLAXOSMITHKLINE, priority 2005, published 2008)
Where two headings read alike, the source gives them in different places.

Legend:
[1] = system: TNF-α; assay: Inhibition of TNF-α production by stimulated human peripheral blood leukocytes in vitro; assay type: cell-based; conditions: PBL; for inhibition at 10 µM / inhibition at 50 µM: Homo sapiens, Leukocyte, read-out: Percentage of inhibition of TNF-α production
Procedure: (§1) Test substances used in in vitro experiments were dissolved in dimethyl sulfoxide (DMSO) (Kemika, Croatia) at concentrations of 50 mM and 10 mM, and were further diluted to final concentrations of 50 μM and 10 μM in 1 mL Dulbecco's modified Eagle medium (DMEM) supplemented with 1% heat inactivated fetal bovine serum (FBS), 1% L-glutamine, 50 U/ml penicillin, 50 μg/ml streptomycin and 2.5 μg/mL Fungizone (amphotericin B). Media and all media supplements were purchased from Gibco, Australia, except the FBS was purchased from Sigma, USA.
(§2) Peripheral blood leukocytes (PBL) were obtained from venous blood of healthy volunteers by sedimentation on 2% dextran T-500 (Amersham Biosciences, USA) and subsequent centrifugations of leukocyte rich plasma.
(§3) Peripheral blood leukocytes (PBL), isolated as described above, were seeded in a 48-well plate at a concentration of 3 to 5×10^6 cell per well in culture medium consisting of RPMI 1640 medium (Institute of Immunology, Croatia) supplemented with 10% heat-inactivated fetal calf serum (FCS, Biowhittaker, USA), 100 U/ml penicillin (Gibco, Australia), 100 μg/ml streptomycin (Gibco, Australia) and 2 mM L-glutamine (Gibco, Australia), and preincubated with the test compounds for 2 h at 37° C., in an atmosphere of 5% CO2, and 90% humidity. Then, stimuli (Sigma, USA) were added to a final concentration of 2 μg/mL lipopolysaccharide (LPS), 1 μg/mL phorbol 12-myristate 13-acetate (PMA) or 120 μg/mL zymosan. Samples were incubated overnight under conditions described above. At the end of incubation, the supernatants were transferred to eppendorf tubes and centrifuged for 10 min at 1500×g. Concentrations of human TNF-α, IL-1β, IL-6 and IL-8 were determined in cell supernatants by sandwich ELISA, using capture and detection antibodies (R&D Systems, Minneapolis, Minn.) according to the manufacturer's recommendations.
(§4) Inhibition (as percentage) was calculated using the following formula: % inhibition=(1−concentration of cytokines in sample/concentration of cytokines in positive control)×100. The positive control refers to stimulated samples, not treated with substances.

[2] = system: IL-1α; assay: Inhibition of IL-1 production by stimulated human peripheral blood leukocytes in vitro; assay type: cell-based; conditions: PBL; for inhibition at 10 µM / inhibition at 50 µM: Homo sapiens, Leukocyte, read-out: Percentage of inhibition of IL-1α production
[3] = system: IL-6; assay: Inhibition of IL-6 production by stimulated human peripheral blood leukocytes in vitro; assay type: cell-based; conditions: PBL; for inhibition at 10 µM / inhibition at 50 µM: Homo sapiens, Leukocyte, read-out: Percentage of inhibition of IL-6 production
Procedure: as §1, §2, §3, §4

[4] = system: IL-8; assay: Inhibition of IL-8 production by stimulated human peripheral blood leukocytes in vitro; assay type: cell-based; conditions: PBL; for inhibition at 10 µM / inhibition at 50 µM: Homo sapiens, Leukocyte, read-out: Percentage of inhibition of IL-8 production
Procedure: as §1, §2, §3, §4

[5] = system: human peripheral blood mononuclear cells (PBMC); assay: Human T-cell proliferation in vitro (3H-thymidine incorporation); assay type: cell-based
Procedure: Influence of substances at two different concentrations (50 μM and 10 μM) on cell proliferation of human peripheral blood mononuclear cells (PBMC) was assessed.
Heparinized peripheral blood was obtained from healthy donors, and PBMC were isolated by Histopaque 1077 (Sigma, USA) density centrifugation at 400×g for 30 minutes. 5×10^4 cells/well were cultured for 3 days in the RPMI medium as described above, in the presence (positive control) or absence (negative control) of stimulators [PHA (2.5 μg/mL) (Sigma, USA), or both PMA (10 ng/mL) (Sigma, USA) and ionomycin (500 ng/mL) (Calbiochem, USA)], and in the presence of the test compounds, at 37° C. in an atmosphere of 5% CO2 and 90% humidity. The cells were pulsed with 1 μCi of ^3H-thymidine (Amersham, USA) per well during the last 18 h of the culture, and were harvested on the 96-well filter (Packard Bioscience, USA) using a multiple cell harvester (Packard, USA). The incorporation of ^3H-thymidine in activated cells were measured using TopCount NXT (Packard, USA).
Inhibition (as percentage) was calculated using the following formula: % inhibition=(1−(^3H)thymidine incorporation expressed in counts per minute (cpm) in sample/(^3H)thymidine incorporation expressed in cpm in positive control)×100
where positive control refers to stimulated samples, not treated with substances.

[6] = system: human granulocytes; assay: Oxidative burst inhibition assay on granulocytes (luminol); assay type: cell-based; conditions: for inhibition at 12.5 µM / inhibition at 50 µM: Homo sapiens
Procedure: (§5) Granulocytes were obtained from heparinized whole blood using density gradient centrifugation. Erythrocytes were sedimented on 3% dextran T-500 (Amersham Pharmacia Biotech AB, Uppsala, Sweden). Leukocytes were centrifuged on Ficoll (Amersham Pharmacia Biotech AB, Uppsala, Sweden) for 35 min at 600 g at 20° C. The pellet of granulocytes was cleared from remaining erythrocytes by a brief hypotonic lysis.
The effect of compounds on oxidative burst was investigated in vitro with oxidative burst assay in human granulocytes, isolated as described above. Assay was done in 96 well plate. Blood was obtained from healthy volunteers (Transfusion Center, Croatia) and human granulocytes were isolated by dextran sedimentation and ficoll extraction method, as described above. In each well 50000 isolated granulocytes were suspended in 100 μL of DMEM. Final concentrations of the tested compounds were 50 and 12.5 μM. Than, 50 μL of luminol (c=0.25 mg/mL) was added. Luminol as a detector of oxidative burst react with superoxide and light is produced as one of the reaction products. Subsequently, 50 μL of stimuli, phorbol-12-myristate acetate (PMA) (c=33 ng/mL) or Zymosan (c=120 μg/mL), were added.

[7] = system: A549; assay: MTT cytotoxicity assay on A549 cell line; assay type: cell-based; conditions: human, 24 h
Procedure: (§6) To determine whether the anti-inflammatory activity of the test compounds was due to observed inhibition of cytokine production and inhibition of proliferation in vitro, and was not a consequence of cellular cytotoxicity, measurement of succinate dehydrogenase activity in living cells was performed. Cells were cultured for 24 h in RPMI medium as described above at 37° C. in the presence of the test compounds at concentrations of 50 μM and 12.5 μM. MTT [3-(4,5-dimethylthiazole-2-yl)-2,5-diphenyl tetrazolium bromide] (Promega, USA), a detection reagent, was then added and the cultures were incubated for 0.5-2 h. The amount of MTT-Formazan produced was determined using a spectrophotometer at 490 nm (Mosmann, J. Imnunol. Methods, 1983, 65: 55-63). Percentage of viable cells was calculated using the following formula:
(§7) % viable cells=([…]OD490 treated cells/OD490 nontreated cells)×100

[8] = system: Hep G2; assay: MTT cytotoxicity assay on Hep G2 cell line; assay type: cell-based; conditions: human, 24 h
Procedure: as §6, §7

[9] = system: granulocytes; assay: Inhibition of degranulation of granulocytes (elastase release); assay type: cell-based, human; conditions: Homo sapiens, compound 50 μM, read-out: Percentage of inhibition of degranulation of granulocytes
Procedure: as §5
1×10^6 granulocytes, isolated as described above, were resuspended in RPMI-1640 medium (Institute of Immunology, Croatia), and were incubated with 10 or 50 μM of test compound together with cytochalasine B (5 μg/mL) for 2 h at 37° C. Degranulation then was induced by the addition of 0.1 μM fMLP (Sigma, USA) or 0.5 μM A23187 (Calbiochem, USA). The activity of free neutrophil elastase was determined with a chromogenic substrate specific for human neutrophil elastase, such as n-methoxysuccinyl-1-alanyl-1-alanyl-1-prolyl-lvalyl-p-niytoanlide (Sigma Chemical Company, St Louis, Mo., USA) Elastase activity, as a marker of primary granules, was assessed in supernatant using a spectrophotometer at an absorbance of 405 nm. Results are expressed as the percent of inhibition of degranulation in unstimulated cells, and in stimulated cells treated with fMLP or A23187.

[10] = zymosan stimulated, compound 10 μM
[11] = zymosan stimulated, compound 50 μM

Compound: CCC1OC(=O)C(C)C(OC2CC(C)(OC)C(O)C(C)O2)C(C)C(OC2OC(C)CC(N(C)C)C2O)C(C)(O)CC(C)CN(C(=S)Nc2ccc(Cl)cc2)C(C)C(O)C1(C)O (stereo not shown) [Compound 2]
- Percentage of inhibition of TNF-α production ([1]; LPS stimulated, compound 10 μM): 37%
- Percentage of inhibition of TNF-α production ([1]; LPS stimulated, compound 50 μM): 100%
- Percentage of inhibition of TNF-α production ([1]; PMA stimulated, compound 10 μM): 60%
- Percentage of inhibition of TNF-α production ([1]; PMA stimulated, compound 50 μM): 99%
- Percentage of inhibition of TNF-α production [1, 10]: 78%
- Percentage of inhibition of TNF-α production [1, 11]: 98%
- Percentage of inhibition of IL-1α production ([2]; LPS stimulated, compound 10 μM): 77%
- Percentage of inhibition of IL-1α production ([2]; LPS stimulated, compound 50 μM): 98%
- Percentage of inhibition of IL-1α production ([2]; PMA stimulated, compound 10 μM): 18%
- Percentage of inhibition of IL-1α production ([2]; PMA stimulated, compound 50 μM): 97%
- Percentage of inhibition of IL-1α production [2, 10]: 92%
- Percentage of inhibition of IL-1α production [2, 11]: 98%
- Percentage of inhibition of IL-6 production ([3]; LPS stimulated, compound 10 μM): 75%
- Percentage of inhibition of IL-6 production ([3]; LPS stimulated, compound 50 μM): 100%
- Percentage of inhibition of IL-6 production ([3]; PMA stimulated, compound 10 μM): 49%
- Percentage of inhibition of IL-6 production ([3]; PMA stimulated, compound 50 μM): 100%
- Percentage of inhibition of IL-6 production [3, 10]: 90%
- Percentage of inhibition of IL-6 production [3, 11]: 100%
- Percentage of inhibition of IL-8 production ([4]; LPS stimulated, compound 10 μM): 79%
- Percentage of inhibition of IL-8 production ([4]; LPS stimulated, compound 50 μM): 88%
- Percentage of inhibition of IL-8 production ([4]; PMA stimulated, compound 10 μM): 27%
- Percentage of inhibition of IL-8 production ([4]; PMA stimulated, compound 50 μM): 58%
- Percentage of inhibition of IL-8 production [4, 10]: 61%
- Percentage of inhibition of IL-8 production [4, 11]: 51%
- Percentage of inhibition of proliferation of stimulated PBMC ([5]; PHA stimulated, compound 10 μM): 6%
- Percentage of inhibition of proliferation of stimulated PBMC ([5]; PHA stimulated, compound 50 μM): 97%
- Percentage of inhibition of proliferation of stimulated PBMC ([5]; PMA + ionomycin stimulated, compound 10 μM): 35%
- Percentage of inhibition of proliferation of stimulated PBMC ([5]; PMA + ionomycin stimulated, compound 50 μM): 99%
- % inhibition of Oxidative burst PMA ([6]; PMA stimulated granulocytes, compound 12.5 μM): 19%
- % inhibition of Oxidative burst PMA ([6]; PMA stimulated granulocytes, compound 50 μM): 82%
- % inhibition of Oxidative burst Zymosan ([6]; Zymosan stimulated granulocytes, compound 12.5 μM): 24%
- % inhibition of Oxidative burst Zymosan ([6]; Zymosan stimulated granulocytes, compound 50 μM): 98%

Compound: CC[C@H]1OC(=O)[C@H](C)[C@@H](O[C@H]2C[C@@](C)(OC)[C@@H](O)[C@H](C)O2)[C@H](C)[C@@H](O[C@@H]2O[C@H](C)C[C@H](N(C)C)[C@H]2O)[C@](C)(O)C[C@@H](C)CN(C(=O)Nc2ccc(C(F)(F)F)cc2)[C@H](C)[C@@H](O)[C@]1(C)O [Compound 9]
- inhibition at 10 µM ([1]; LPS stimulated, compound 10 μM): 23%
- inhibition at 50 µM ([1]; LPS stimulated, compound 50 μM): 100%
- inhibition at 10 µM [1, 10]: 39%
- inhibition at 50 µM [1, 11]: 100%
- inhibition at 10 µM ([2]; LPS stimulated, compound 10 μM): 45%
- inhibition at 50 µM ([2]; LPS stimulated, compound 50 μM): 43%
- inhibition at 10 µM [2, 10]: 65%
- inhibition at 50 µM [2, 11]: 22%
- inhibition at 10 µM ([3]; LPS stimulated, compound 10 μM): 0%
- inhibition at 50 µM ([3]; LPS stimulated, compound 50 μM): 100%
- inhibition at 10 µM [3, 10]: 58%
- inhibition at 50 µM [3, 11]: 100%
- inhibition at 10 µM ([4]; LPS stimulated, compound 10 μM): 0%
- inhibition at 50 µM ([4]; LPS stimulated, compound 50 μM): 100%
- inhibition at 10 µM [4, 10]: 0%
- inhibition at 50 µM [4, 11]: 100%
- Percentage of viable cells after treatment ([7]; 12.5 μM): 100%
- Percentage of viable cells after treatment ([7]; 50 μM): 100%
- Percentage of viable cells after treatment ([8]; 12.5 μM): 92%
- Percentage of viable cells after treatment ([8]; 50 μM): 21%

Compound: CC[C@H]1OC(=O)[C@H](C)[C@@H](O[C@H]2C[C@@](C)(OC)[C@@H](O)[C@H](C)O2)[C@H](C)[C@@H](O[C@@H]2O[C@H](C)C[C@H](N(C)C)[C@H]2O)[C@](C)(O)C[C@@H](C)C(=O)[C@H](C)[C@@H](O)[C@]1(C)O [Erythromycin, erythromycin]
- inhibition at 50 µM ([9]; A23187 0.5 μM stimulated): 0%
- inhibition at 50 µM ([9]; fMLP 0.1 μM stimulated): 23%
- inhibition at 12.5 µM ([6]; PMA stimulated granulocytes, compound 12.5 μM, read-out: % inhibition of Oxidative burst PMA): 0%
- inhibition at 50 µM ([6]; PMA stimulated granulocytes, compound 50 μM, read-out: % inhibition of Oxidative burst PMA): 0%
- inhibition at 12.5 µM ([6]; Zymosan stimulated granulocytes, compound 12.5 μM, read-out: % inhibition of Oxidative burst Zymosan): 6%
- inhibition at 50 µM ([6]; Zymosan stimulated granulocytes, compound 50 μM, read-out: % inhibition of Oxidative burst Zymosan): 41%
